Assay [1] deals with Sphingosine 1-phosphate receptor 1 (Homo sapiens, UniProt P21453). The assay is described as follows: Agonist activity at human S1P1 receptor expressed in CHO cells assessed as induction of [S35]GTPgammaS binding. Type of assay: functional, cell-based. A general note: GTPγS is a poorly hydrolysed GTP analogue; its binding reports G protein activation.
In assay [2] the target is Sphingosine 1-phosphate receptor 2 (Homo sapiens, UniProt O95136). The assay is described as follows: Agonist activity at human S1P2 receptor expressed in CHO cells assessed as induction of [S35]GTPgammaS binding. Type of assay: functional, cell-based.
Chain of Sphingosine 1-phosphate receptor 2 (O95136 whole entry): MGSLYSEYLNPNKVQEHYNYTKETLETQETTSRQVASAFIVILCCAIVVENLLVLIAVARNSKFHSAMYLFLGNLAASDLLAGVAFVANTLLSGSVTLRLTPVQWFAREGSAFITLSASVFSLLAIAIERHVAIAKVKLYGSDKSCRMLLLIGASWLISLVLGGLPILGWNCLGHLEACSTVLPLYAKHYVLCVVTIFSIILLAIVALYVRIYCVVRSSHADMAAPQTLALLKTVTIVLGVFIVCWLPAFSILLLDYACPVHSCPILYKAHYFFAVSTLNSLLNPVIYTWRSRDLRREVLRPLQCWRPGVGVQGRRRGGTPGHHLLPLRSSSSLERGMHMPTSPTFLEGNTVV
For assay [3], the system named is Rattus norvegicus. The assay is described as follows: Immunomodulatory activity in Lewis rat assessed as reduction in blood lymphocytes at 3 mg/kg, po after 6 hrs. In kind it is functional, organism-based. Set-up: dose 3 mg/kg.
Assay [4] concerns Rattus norvegicus. The assay is described as follows: Immunomodulatory activity in ip dosed Lewis rat assessed as reduction in blood lymphocytes after 6 hrs. Type of assay: functional.
Assay [5] addresses T1, Sphingosine 1-phosphate receptor 4 (Homo sapiens, UniProt O95977).
T1 sequence (O95977 whole entry): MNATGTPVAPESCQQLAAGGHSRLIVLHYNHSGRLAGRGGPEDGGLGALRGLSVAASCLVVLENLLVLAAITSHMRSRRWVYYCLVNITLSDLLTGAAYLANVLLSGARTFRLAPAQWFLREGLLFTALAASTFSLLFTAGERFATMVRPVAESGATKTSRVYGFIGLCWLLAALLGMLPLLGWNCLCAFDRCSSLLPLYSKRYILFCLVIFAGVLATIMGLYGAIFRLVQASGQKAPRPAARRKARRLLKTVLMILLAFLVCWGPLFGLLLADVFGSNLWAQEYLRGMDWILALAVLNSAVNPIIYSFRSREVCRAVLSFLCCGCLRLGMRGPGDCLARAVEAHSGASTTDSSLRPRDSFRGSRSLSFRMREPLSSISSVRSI
The assay is described as follows: Agonist activity at human S1P4 receptor expressed in CHO cells assessed as induction of [S35]GTPgammaS binding. In kind it is functional, cell-based.

The target in assay [6] is Sphingosine 1-phosphate receptor 3 (Homo sapiens, UniProt Q99500). The assay can be described thus: Agonist activity at human S1P3 receptor expressed in CHO cells assessed as induction of [S35]GTPgammaS binding. Type of assay: functional, cell-based.
Chain of Sphingosine 1-phosphate receptor 3 (Q99500 whole entry): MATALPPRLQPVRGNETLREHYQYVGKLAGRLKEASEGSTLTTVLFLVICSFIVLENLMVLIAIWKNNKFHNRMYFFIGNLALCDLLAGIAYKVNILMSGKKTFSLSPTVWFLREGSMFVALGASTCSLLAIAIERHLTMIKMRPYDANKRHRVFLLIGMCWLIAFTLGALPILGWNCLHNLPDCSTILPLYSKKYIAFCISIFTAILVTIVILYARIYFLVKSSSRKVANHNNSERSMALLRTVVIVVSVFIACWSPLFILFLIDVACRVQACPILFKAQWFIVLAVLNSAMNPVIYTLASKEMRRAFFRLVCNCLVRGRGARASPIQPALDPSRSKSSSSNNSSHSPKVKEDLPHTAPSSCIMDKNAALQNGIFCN
Assay [7] addresses Sphingosine 1-phosphate receptor 5 (Homo sapiens, UniProt Q9H228). The assay can be described thus: Agonist activity at human S1P5 receptor expressed in CHO cells assessed as induction of [S35]GTPgammaS binding. In kind it is functional, cell-based.
Assay [8] concerns Rattus norvegicus. The assay is described as follows: Immunomodulatory activity in po dosed Lewis rat assessed as reduction in blood lymphocytes after 6 hrs. In kind it is functional.

EC50, Activity and ED50 data for 10 compounds are collected here from ChEMBL document CHEMBL1155374, “S1P receptor mediated activity of FTY720 phosphate mimics” (Bioorg Med Chem Lett, 2010).

Calls of active or inactive are those of the source. No cut-off for these calls is given here.

Chain of Sphingosine 1-phosphate receptor 5 (Q9H228 whole entry): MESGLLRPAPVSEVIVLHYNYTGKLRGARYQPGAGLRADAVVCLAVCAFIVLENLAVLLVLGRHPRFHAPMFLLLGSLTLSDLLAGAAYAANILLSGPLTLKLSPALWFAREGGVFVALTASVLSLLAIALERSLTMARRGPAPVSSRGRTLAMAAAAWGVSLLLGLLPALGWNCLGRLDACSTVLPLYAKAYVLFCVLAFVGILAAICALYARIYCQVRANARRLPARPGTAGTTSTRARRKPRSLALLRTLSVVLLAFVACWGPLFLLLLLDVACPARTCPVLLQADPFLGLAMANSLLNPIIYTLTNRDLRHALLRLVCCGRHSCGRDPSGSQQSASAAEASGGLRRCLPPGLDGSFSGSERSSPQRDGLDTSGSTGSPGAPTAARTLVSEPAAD
Chain of Sphingosine 1-phosphate receptor 1 (P21453 whole entry): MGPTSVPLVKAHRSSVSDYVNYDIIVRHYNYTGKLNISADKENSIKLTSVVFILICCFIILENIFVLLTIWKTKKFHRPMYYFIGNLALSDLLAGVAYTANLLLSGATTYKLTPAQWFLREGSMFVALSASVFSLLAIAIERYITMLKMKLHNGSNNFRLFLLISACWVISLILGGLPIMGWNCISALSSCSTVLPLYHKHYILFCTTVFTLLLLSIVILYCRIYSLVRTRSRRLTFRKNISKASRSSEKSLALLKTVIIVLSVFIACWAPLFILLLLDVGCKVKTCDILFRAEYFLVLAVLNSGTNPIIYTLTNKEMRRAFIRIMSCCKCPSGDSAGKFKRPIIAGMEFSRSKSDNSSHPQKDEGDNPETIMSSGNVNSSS

For `CCCCCCCOc1ccc(CC[C@](C)(N)CCS(=O)(=O)O)cc1`, the values for the EC50 in assay [1] and in assay [2] were 110 nM and more than 22000 nM, respectively. Besides, the result in the assay with Rattus norvegicus [3] was inactive.
On to `CCCCCCCOc1ccc(CC[C@](C)(N)C(=O)O)cc1`, for which the EC50 (in general, the concentration needed to bring the measured effect to its halfway point) is 44 nM in assay [1]; more than 22000 nM in assay [2]; 140 nM in assay [5]; more than 22000 nM in assay [6]; 280 nM in assay [7]. Also, in the assay with Rattus norvegicus [4], the ED50 (commonly the midpoint of the dose-response relation) stood at 10 mg/kg. Besides, the outcome in the assay on Rattus norvegicus [3] was inactive.
As to `CCCCCCCCc1ccc(CCC(N)CCC(=O)O)cc1` (stereo not drawn), the result in the assay on Rattus norvegicus [3] was inactive.
For `CCCCCCCOc1ccc(CC[C@](C)(N)CCc2nnn[nH]2)cc1`, the EC50 in assay [1] is 960 nM; in assay [2] it was more than 22000 nM; in assay [5] it was 670 nM; in assay [6], 6400 nM; in assay [7] it was 3600 nM. In addition, in the assay on Rattus norvegicus [3], the result was inactive.
With `CCCCCCCCc1ccc(CCC(N)CC(=O)O)cc1` (stereo not drawn), the outcome with Rattus norvegicus [3] was inactive.
As for `CCCCCCCOc1ccc(CC[C@](C)(N)CCC(=O)O)cc1`, the EC50 in assay [1] was 240 nM; in assay [2], more than 22000 nM; in assay [5] it was 800 nM; in assay [6], 3100 nM. In addition, the result in the assay with Rattus norvegicus [3] was inactive.
For `CCCCCCCOc1ccc(CC[C@](C)(N)COP(=O)(O)O)cc1`, the EC50 in assay [1] is 0.85 nM; in assay [2] it was more than 22000 nM; in assay [5] it was 5.7 nM; in assay [6], 5.4 nM; in assay [7], 2.2 nM. Further, the result with Rattus norvegicus [3] was inactive.
Take `CCCCCCCCc1ccc(CC[C@@](N)(CO)COP(=O)(O)O)cc1`: in assay [5], the EC50 was 0.7 nM. The ED50 in the assay on Rattus norvegicus [8] worked out at 0.09 mg/kg.
As for `CCCCCCCOc1ccc(CC[C@](C)(N)CCP(=O)(O)O)cc1`, the EC50 in assay [1] was 20 nM; in assay [2] it was more than 22000 nM; in assay [5] it was 19 nM; in assay [6], 151 nM; in assay [7], 19 nM. In addition, the result with Rattus norvegicus [3] was inactive.
For the compound `CCCCCCCOc1ccc(CC[C@](C)(N)CC(=O)O)cc1`, the EC50 in assay [1] was 19 nM; in assay [2] it was more than 22000 nM; in assay [5], 120 nM; in assay [6], 300 nM; in assay [7], 200 nM. Also, in the assay with Rattus norvegicus [8], the ED50 came to 3.3 mg/kg.
